Key:
[1] = after 24 hrs; cited from earlier work
[2] = Liver, lung, kidney and plasma distribution of radiolabeled (tritiated) galactomannan after single intravenous injection; type: in vivo, male NCr-nu athymic nude mice; conditions: for μCi of 3H-galactomannan per 1 g of kidney / μCi of 3H-galactomannan per 1 g of liver / μCi of 3H-galactomannan per 1 g of lungs / μCi of 3H-galactomannan per kidney, total / μCi of 3H-galactomannan per lungs, total / μCi of 3H-galactomannan per mL of plasma / μCi of 3H-galactomannan per liver, total: 6 or 60 mg/kg i.v., pooled; for μCi of 3H-galactomannan per liver, total: average of four animals
Description: Twelve male NCr-nu athymic nude mice (Charles Rivers Laboratories, Raleigh, N.C.) were acclimated in the laboratory one week prior to experimentation. The animals were housed in microisolator cages, four per cage, and using a 12-hour light/dark cycle. All animals received sterilized tap water and sterile rodent food ad libitum. The animals were observed daily and clinical signs were noted. The mice were healthy and had not been previously used in other experimental procedures.
Tritiation of the galactomannan was performed as follows. 12.8 mg of the galactomannan was dissolved in 2.0 mL of water and exposed to 25 Curies of tritium gas in the presence of Pd/BaSO4 catalyst (120 mg, totally insoluble in water). After one hour the gas supply was removed, the catalyst was filtered away, and the aqueous solution of the galactomannan was evaporated to dryness repeatedly (four-fold, adding water), until no labile tritium was found. Total yield of the labeled galactomannan was 3.8 mCi, specific radioactivity was […].
All twelve mice were given a single intravenous injection of cold or tritiated galactomannan (either 6 or 60 mg/kg) on the same day. Non-labeled galactomannan was formulated in saline, and tritiated galactomannan was added to the solution so that each animal received 10 μCi of radioactivity. All dosing solutions (100 μL each) were counted in duplicate. Six mice were injected with 6 mg/kg solution, and six mice—with 60 mg/kg solution.
Two mice from each group were bled at 1, 6, and 24 hrs after injection, and plasma was prepared. Animals were then sacrificed; livers, kidneys and lungs were collected, weighed and flash-frozen for further analysis.
After weighing, livers were dissolved in 10 mL of Soluene 350 and incubated first for 4 hrs at 50° C., and at room temperature, until tissues were solubilized. One mL of the resulting solution was counted in a scintillation counter as a single sample. Based on tissue weight and the sample volume, the number of μCi of tritiated galactomannan per gram of tissue was calculated.
Kidneys were treated in the same manner, but dissolved in two mL of Soluene. After the tissue was solubilized at room temperature, 15 mL of Safety Solve scintillation fluid was added and samples were incubated overnight. Five mL of the resulting solution were diluted in 15 mL of Safety Solve and counted in a scintillation counter as a single sample. Lungs were treated in the same manner but dissolved in one mL of Soluene. Plasma samples (50 μL each) were placed direct into Safety Solve and counted as a single sample.
The statistical evaluation was based on experiments to trace and quantify the labeled galactomannan in organs/tissues (liver, kidneys, lung, and plasma). Six mice were treated with galactomannan at 60 mg/kg with each of 2 mice sacrificed at 1, 6, and 24 hours; six mice were treated with galactomannan at 6 mg/kg with each of 2 mice sacrificed at 1, 6, and 24 hours, as described above. The percentages of ^3H-galactomannan recovered per organ (μCi/gram) was used for analyses; plasma outcome (μCi/ml) was counted from the entire sample.
The assessment of radiolabel uptake was challenging with only two mice per treatment-sacrifice time combination and occasional outliers. To address the number of mice per group, pooling tests were performed for the two galactomannan treatment groups; this would potentially increase sample size per group to four. To address possible outliers, all outcomes for each individual mouse was visually compared to the other mice in the series-treatment-time combination; the four possible mice outcomes were considered in this evaluation since any sigma-based rule would have excluded none or both observations if applied separately to the two different series.
SAS (Version 6.12, Cary, N.C.) was used for all analyses. PROC ANOVA was used for pooling tests, while […] was used to estimate means and standard deviations.
Overall, the data in Table 1 are average for four animals.

O=c1[nH]cc(F)c(=O)[nH]1 [5-fluorouracil]
clearance from the kidneys, eliminated to [1]: 3.8% | clearance from the liver, eliminated to [1]: 1.6% | clearance from the lungs, eliminated to [1]: 3.6%

galactomannan
increase of the amount of bound galactomannan ([2]; 60 mg/kg versus 6 mg/kg (10-times higher dose)): 10 fold | μCi of 3H-galactomannan per 1 g of kidney ([2]; 1 hr after injection): 0.302 μCi/gram | μCi of 3H-galactomannan per 1 g of liver ([2]; 1 hr after injection): 0.219 μCi/gram | μCi of 3H-galactomannan per 1 g of lungs ([2]; 1 hr after injection): 0.117 μCi/gram | μCi of 3H-galactomannan per kidney, total ([2]; 1 hr after injection): 0.120 μCi | μCi of 3H-galactomannan per lungs, total ([2]; 1 hr after injection): 0.019 μCi | μCi of 3H-galactomannan per mL of plasma ([2]; 1 hr after injection): 0.201 μCi/ml | μCi of 3H-galactomannan per liver, total ([2]; 1 hr after injection): 0.262 μCi | μCi of 3H-galactomannan per 1 g of kidney ([2]; 6 hr after injection): 0.131 μCi/gram | μCi of 3H-galactomannan per 1 g of liver ([2]; 6 hr after injection): 0.146 μCi/gram | μCi of 3H-galactomannan per 1 g of lungs ([2]; 6 hr after injection): 0.063 μCi/gram | μCi of 3H-galactomannan per kidney, total ([2]; 6 hr after injection): 0.060 μCi | μCi of 3H-galactomannan per lungs, total ([2]; 6 hr after injection): 0.012 μCi | μCi of 3H-galactomannan per mL of plasma ([2]; 6 hr after injection): 0.095 μCi/ml | μCi of 3H-galactomannan per liver, total ([2]; 6 hr after injection): 0.196 μCi | μCi of 3H-galactomannan per 1 g of kidney ([2]; 24 hrs after injection): 0.087 μCi/gram | μCi of 3H-galactomannan per 1 g of liver ([2]; 24 hrs after injection): 0.129 μCi/gram | μCi of 3H-galactomannan per 1 g of lungs ([2]; 24 hrs after injection): 0.060 μCi/gram | μCi of 3H-galactomannan per kidney, total ([2]; 24 hrs after injection): 0.040 μCi | μCi of 3H-galactomannan per lungs, total ([2]; 24 hrs after injection): 0.011 μCi | μCi of 3H-galactomannan per mL of plasma ([2]; 24 hrs after injection): 0.106 μCi/ml | μCi of 3H-galactomannan per liver, total ([2]; 24 hrs after injection): 0.169 μCi | saturation of the binding to liver, kidney, lung, and plasma ([2]; between the 6 mg/kg and 60 mg/kg doses): did not reach saturation of the binding | share of the radioactivity detected at one hour after injection still present ([2]; liver, at 24 hours, average): more than 50% | share of the one-hour radioactivity detected ([2]; plasma, kidneys, and lungs, at 6 hours, average): approximately 50%

From patent US20210008097A1, “Compositions Comprising Galactose-Pronged Polysaccharides” (Galectin Therapeutics, Inc., priority 2006, published 2021)
